Measurements: patent publication US6423689B1, “Peptidyl calcium channel blockers” (Warner-Lambert Company, priority 1997, dated 2002)

Target: T1, N-type Ca2+ channels in IMR-32 cells (Homo sapiens, UniProt Q00975)
T1 construct: host or cells: IMR-32 cells, differentiated with dibutyryl cAMP and bromodeoxyuridine
Assay: Inhibition of N-type calcium flux in IMR-32 cells (Indo-1 fluorescence, nitrendipine present)
Assay type: cell-based
Conditions: for inhibition at 1 µM / inhibition at 10 µM: IMR-32; for IC50: IMR-32 cells, 5 μM nitrendipine, K+ depolarization
Summary of the method: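 With L-type flux blocked by 5 μM nitrendipine, N-type Ca2+ entry was read as the Indo-1 emission ratio (400/490 nm, excitation 350 nm) at 30° C after KCl depolarization.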

T1 sequence (Q00975 whole entry): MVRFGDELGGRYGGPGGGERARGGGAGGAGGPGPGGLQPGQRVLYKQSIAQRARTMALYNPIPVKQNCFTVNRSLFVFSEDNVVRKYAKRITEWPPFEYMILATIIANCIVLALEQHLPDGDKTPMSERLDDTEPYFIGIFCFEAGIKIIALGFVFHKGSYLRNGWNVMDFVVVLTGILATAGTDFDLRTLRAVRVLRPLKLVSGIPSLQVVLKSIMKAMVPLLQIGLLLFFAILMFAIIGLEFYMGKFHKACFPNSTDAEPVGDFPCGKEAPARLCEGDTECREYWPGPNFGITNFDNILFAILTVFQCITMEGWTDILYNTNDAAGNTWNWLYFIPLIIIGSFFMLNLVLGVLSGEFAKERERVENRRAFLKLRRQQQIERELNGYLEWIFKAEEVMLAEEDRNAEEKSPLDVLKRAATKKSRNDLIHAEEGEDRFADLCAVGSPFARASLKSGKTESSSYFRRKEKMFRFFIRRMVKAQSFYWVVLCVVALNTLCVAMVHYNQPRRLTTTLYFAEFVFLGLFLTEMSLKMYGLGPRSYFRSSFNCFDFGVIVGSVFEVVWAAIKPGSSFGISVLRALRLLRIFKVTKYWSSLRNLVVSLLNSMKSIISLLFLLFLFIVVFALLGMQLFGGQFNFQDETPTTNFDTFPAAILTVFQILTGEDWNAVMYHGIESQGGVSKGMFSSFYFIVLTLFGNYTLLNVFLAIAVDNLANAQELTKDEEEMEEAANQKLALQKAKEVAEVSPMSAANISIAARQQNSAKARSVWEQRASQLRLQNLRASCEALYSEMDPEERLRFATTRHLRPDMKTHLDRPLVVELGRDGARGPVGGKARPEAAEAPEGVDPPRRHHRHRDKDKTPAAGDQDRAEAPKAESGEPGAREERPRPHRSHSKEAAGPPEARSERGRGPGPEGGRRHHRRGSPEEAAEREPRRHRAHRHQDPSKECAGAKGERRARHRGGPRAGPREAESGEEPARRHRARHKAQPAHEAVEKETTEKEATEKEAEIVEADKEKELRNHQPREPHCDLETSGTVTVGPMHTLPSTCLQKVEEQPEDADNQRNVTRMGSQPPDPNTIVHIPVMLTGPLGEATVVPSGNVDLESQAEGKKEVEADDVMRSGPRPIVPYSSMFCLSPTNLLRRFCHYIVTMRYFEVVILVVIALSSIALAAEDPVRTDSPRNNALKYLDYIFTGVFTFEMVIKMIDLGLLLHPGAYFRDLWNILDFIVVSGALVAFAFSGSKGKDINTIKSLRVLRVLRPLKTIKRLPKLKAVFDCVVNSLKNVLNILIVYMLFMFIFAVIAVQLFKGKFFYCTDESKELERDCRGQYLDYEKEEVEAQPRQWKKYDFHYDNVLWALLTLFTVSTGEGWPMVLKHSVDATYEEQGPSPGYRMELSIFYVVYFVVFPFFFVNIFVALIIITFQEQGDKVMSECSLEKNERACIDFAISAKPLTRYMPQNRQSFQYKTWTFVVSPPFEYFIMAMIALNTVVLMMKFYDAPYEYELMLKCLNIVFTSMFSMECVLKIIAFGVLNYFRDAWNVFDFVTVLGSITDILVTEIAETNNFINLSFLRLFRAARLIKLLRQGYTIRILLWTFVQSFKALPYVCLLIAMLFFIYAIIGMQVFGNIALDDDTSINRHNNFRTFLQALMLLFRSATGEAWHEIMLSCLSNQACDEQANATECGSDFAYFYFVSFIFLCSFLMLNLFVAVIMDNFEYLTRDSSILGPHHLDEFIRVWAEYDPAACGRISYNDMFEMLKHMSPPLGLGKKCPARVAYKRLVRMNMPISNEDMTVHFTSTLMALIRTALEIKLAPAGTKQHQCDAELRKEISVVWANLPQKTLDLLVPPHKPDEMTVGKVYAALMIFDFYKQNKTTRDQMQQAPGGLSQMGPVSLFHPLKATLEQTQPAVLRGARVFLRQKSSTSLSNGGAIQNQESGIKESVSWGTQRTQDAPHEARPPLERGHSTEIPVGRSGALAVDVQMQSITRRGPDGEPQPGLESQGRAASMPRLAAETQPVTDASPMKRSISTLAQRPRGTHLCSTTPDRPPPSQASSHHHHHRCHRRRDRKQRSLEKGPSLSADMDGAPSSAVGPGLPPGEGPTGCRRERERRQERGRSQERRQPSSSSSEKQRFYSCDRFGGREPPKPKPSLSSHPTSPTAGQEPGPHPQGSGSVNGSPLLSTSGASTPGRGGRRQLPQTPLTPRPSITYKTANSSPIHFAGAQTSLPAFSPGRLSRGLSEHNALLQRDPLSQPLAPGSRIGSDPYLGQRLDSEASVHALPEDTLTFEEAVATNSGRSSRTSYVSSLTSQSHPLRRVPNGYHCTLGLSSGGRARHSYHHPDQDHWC
T1 sequence (P54289 25-956 partner limits assumed): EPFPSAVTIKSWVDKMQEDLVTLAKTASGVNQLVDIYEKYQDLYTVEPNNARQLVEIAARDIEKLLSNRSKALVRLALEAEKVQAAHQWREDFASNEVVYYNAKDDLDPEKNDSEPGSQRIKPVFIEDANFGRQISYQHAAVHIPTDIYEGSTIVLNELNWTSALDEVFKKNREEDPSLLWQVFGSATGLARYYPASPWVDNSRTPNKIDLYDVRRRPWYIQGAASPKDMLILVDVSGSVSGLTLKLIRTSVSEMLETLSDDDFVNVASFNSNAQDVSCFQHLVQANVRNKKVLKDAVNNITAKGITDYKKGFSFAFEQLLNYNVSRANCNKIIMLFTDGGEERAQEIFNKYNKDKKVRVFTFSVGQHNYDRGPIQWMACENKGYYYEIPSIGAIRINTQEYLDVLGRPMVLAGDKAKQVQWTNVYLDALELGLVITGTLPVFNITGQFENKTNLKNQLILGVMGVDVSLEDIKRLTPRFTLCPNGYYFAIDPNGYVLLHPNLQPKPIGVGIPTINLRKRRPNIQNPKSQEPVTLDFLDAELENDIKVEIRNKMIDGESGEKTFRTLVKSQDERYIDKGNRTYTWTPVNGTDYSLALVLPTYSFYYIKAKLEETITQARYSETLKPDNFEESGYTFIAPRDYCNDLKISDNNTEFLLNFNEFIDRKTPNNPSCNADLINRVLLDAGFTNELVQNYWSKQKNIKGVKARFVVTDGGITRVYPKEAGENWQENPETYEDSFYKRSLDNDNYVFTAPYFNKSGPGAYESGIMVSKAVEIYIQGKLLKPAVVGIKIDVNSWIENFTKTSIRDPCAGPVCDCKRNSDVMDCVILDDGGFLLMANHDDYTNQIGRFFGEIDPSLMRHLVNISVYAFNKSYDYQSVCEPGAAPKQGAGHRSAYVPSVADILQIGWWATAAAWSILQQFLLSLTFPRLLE
T1 sequence (P54289 957-1103 partner limits assumed): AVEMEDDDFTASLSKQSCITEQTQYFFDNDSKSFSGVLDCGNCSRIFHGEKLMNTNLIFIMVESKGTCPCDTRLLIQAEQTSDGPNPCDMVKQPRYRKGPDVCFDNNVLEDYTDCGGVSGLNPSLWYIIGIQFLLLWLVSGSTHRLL
T1 sequence (P54284 whole entry partner): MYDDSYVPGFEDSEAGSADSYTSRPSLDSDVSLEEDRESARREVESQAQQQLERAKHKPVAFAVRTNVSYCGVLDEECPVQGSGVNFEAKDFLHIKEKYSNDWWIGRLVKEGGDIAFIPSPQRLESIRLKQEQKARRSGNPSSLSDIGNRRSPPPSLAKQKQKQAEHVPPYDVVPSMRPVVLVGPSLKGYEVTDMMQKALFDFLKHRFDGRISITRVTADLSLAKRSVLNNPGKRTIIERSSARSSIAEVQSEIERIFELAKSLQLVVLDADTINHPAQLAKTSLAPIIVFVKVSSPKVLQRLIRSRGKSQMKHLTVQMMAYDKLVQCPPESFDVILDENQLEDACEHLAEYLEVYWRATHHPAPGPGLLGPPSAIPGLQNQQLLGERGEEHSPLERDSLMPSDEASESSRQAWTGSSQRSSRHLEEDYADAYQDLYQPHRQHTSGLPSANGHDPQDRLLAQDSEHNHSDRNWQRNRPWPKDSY

**Q.** Which inhibition at 1 µM does the source give for `CC(C)C[C@H](NC(=O)N1CCCCCC1)C(=O)N[C@@H](Cc1ccc(OCc2ccccc2)cc1)C(=O)Nc1cccnc1` [Example 254, [S-(R*,R*)]-Azepane-1-carboxylic acid {1-[2-(4-benzyloxy-phenyl)-1-(pyridin-3-ylcarbamoyl)-ethylcarbamoyl]-3-methyl-butyl}-amide] here?
**A.** 39%

**Q.** What about the inhibition at 10 µM of the same molecule?
**A.** 83%

**Q.** And the IC50?
**A.** 1.6 µM

**Q.** For `CC(C)CC(NC(=O)N1CCCCCC1)C(=O)NC(Cc1ccc(OCc2ccccc2)cc1)C(=O)NCCC1CCCN1C` (stereo not drawn) [Example 193, Azepane-1-carboxylic acid (1-{2-(4-benzyloxy-phenyl)-1-[2-(1-methyl-pyrrolidin-2-yl)-ethylcarbamoyl]-ethylcarbamoyl}-3-methyl-butyl)-amide], which IC50 is on record?
**A.** 3.2 µM

**Q.** `CC(C)CC(NC(=O)N1CCCCCC1)C(=O)NC(Cc1ccc(OCc2ccccc2)cc1)C(=O)NC1CCCN(CC(C)C)C1` (stereo not drawn) [Example 198, Azepane-1-carboxylic acid {1-[2-(4-benzyloxy-phenyl)-1-(1-isobutyl-piperidin-3-ylcarbamoyl)-ethylcarbamoyl]-3-methyl-butyl}-amide] was tested. Which IC50 did it give?
**A.** 0.36 µM

**Q.** `CC(C)C[C@H](NC(=O)c1ccc(C(C)(C)C)cc1)C(=O)N[C@@H](Cc1ccc(OCc2ccccc2)cc1)C(=O)OC(C)(C)C` (relative stereo) [Example 93, [S-(R*,R*)]-3-(4-Benzyloxy-phenyl)-2-[2-(4-tert-butyl-benzoylamino)-4-methyl-pentanoylamino]-propionic acid tert-butyl ester] was tested. Which “Inhibition of Calcium Flux in IMR-32 Cells % Inhibition at 1 μM” value did it give?
**A.** 17%

**Q.** For `CC(C)C[C@H](NC(=O)N1CCCCCC1)C(=O)N[C@@H](Cc1ccc(OCc2ccccc2)cc1)C(=O)NCc1ccc(CN)cc1` [Example 217, [S-(R*,R*)]-Azepane-1-carboxylic acid {1-[1-(4-aminomethyl-benzylcarbamoyl)-2-(4-benzyloxy-phenyl)-ethylcarbamoyl]-3-methyl-butyl}-amide], which inhibition at 1 µM is on record?
**A.** 35%

**Q.** What about the inhibition at 10 µM of the same molecule?
**A.** 75%

**Q.** What about the IC50 of the same molecule?
**A.** 5 µM

**Q.** Which IC50 does the source give for `CC(C)(C)NC(=O)[C@H](Cc1ccc(OCc2ccccc2)cc1)NC(=O)[C@@H]1CCCN1C(=O)N1CCCCCC1` [Example 153, [S-(R*,R*)]-1-(Azepane-1-carbonyl)-pyrrolidine-2-carboxylic acid [2-(4-benzyloxy-phenyl)-1tert-butylcarbamoyl-ethyl]-amide] here?
**A.** 3.7 µM

**Q.** With `CC(C)C[C@H](NS(=O)(=O)c1ccc2cccnc2c1)C(=O)N[C@@H](Cc1ccc(OCc2ccccc2)cc1)C(=O)OC(C)(C)C` (relative stereo) [Example 109, [S-(R*,R*)]-3-(4-Benzyloxy-phenyl)-2-[4-methyl-2-(quinoline-7-sulfonylamino)-pentanoylamino]-propionic acid tert-butyl ester] as the molecule, how does the “Inhibition of Calcium Flux in IMR-32 Cells % Inhibition at 10 μM” value read?
**A.** 56%

**Q.** Which results are given for `CC(C)C[C@H](NC(=O)N1CCCCCC1)C(=O)N[C@@H](Cc1ccc(OCc2ccccc2)cc1)C(=O)NC1CCCCCC1` [Example 208, [S-(R*,R*)]-Azepane-1-carboxylic acid {1-[2-(4-benzyloxy-phenyl)-1-cycloheptylcarbamoyl-ethylcarbamoyl]-3-methyl-butyl}-amide]?
**A.** inhibition at 1 µM: 38%; inhibition at 10 µM: 81%; IC50: 1.8 µM

**Q.** With `Cc1ccccc1S(=O)(=O)N[C@@H](CC(C)C)C(=O)N[C@@H](Cc1ccc(OCc2ccccc2)cc1)C(=O)OC(C)(C)C` (relative stereo) [Example 105, [S-(R*,R*)]-3-(4-Benzyloxy-phenyl)-2-[4-methyl-2-(toluene-2-sulfonylamino)-pentanoylamino]-propionic acid tert-butyl ester] as the molecule, how does the “Inhibition of Calcium Flux in IMR-32 Cells % Inhibition at 1 μM” value read?
**A.** 29%

**Q.** For `CC(C)C[C@H](NC(=O)c1ccc(F)cc1)C(=O)N[C@@H](Cc1ccc(OCc2ccccc2)cc1)C(=O)OC(C)(C)C` (relative stereo) [Example 94, [S-(R*,R*)]-3-(4-Benzyloxy-phenyl)-2-[2-(4-fluoro-benzoylamino)-4-methyl-pentanoylamino]-propionic acid tert-butyl ester], which “Inhibition of Calcium Flux in IMR-32 Cells % Inhibition at 1 μM” value is on record?
**A.** 29%

**Q.** Which results are given for `CC(C)[C@H](NC(=O)N1CCCCCC1)C(=O)N[C@@H](Cc1ccc(OCc2ccccc2)cc1)C(=O)OC(C)(C)C` [Example 6, [S-(R*,R*)]-2-{2-[(Azepane-1-carbonyl)-amino]-3-methyl-butyrylamino}-3-(4-benzyloxy-phenyl)-propionic acid tert-butyl ester]?
**A.** inhibition at 1 µM: 63%; inhibition at 10 µM: 98%; IC50: 0.72 µM

**Q.** For `COc1ccc(N2CCN(C(=O)[C@H](Cc3ccc(OCc4ccccc4)cc3)NC(=O)[C@H](CC(C)C)NC(=O)N3CCCCCC3)CC2)cc1` [Example 264, [S-(R*,R*)]-Azepane-1-carboxylic acid (1-{1-(4-benzyloxy-benzyl)-2-[4-(4-methoxy-phenyl)-piperazin-1-yl]-2-oxo-ethylcarbamoyl}-3-methyl-butyl)-amide], which IC50 is on record?
**A.** 0.74 µM

**Q.** How did the “Inhibition of Calcium Flux in IMR-32 Cells % Inhibition at 1 μM” value turn out when `COc1ccc(S(=O)(=O)N[C@@H](CC(C)C)C(=O)N[C@@H](Cc2ccc(OCc3ccccc3)cc2)C(=O)OC(C)(C)C)cc1` (relative stereo) [Example 103, [S-(R*,R*)]-3-(4-Benzyloxy-phenyl)-2-[2-(4-methoxy-benzenesulfonylamino)-4-methyl-pentanoylamino]-propionic acid tert-butyl ester] was run?
**A.** 28%

**Q.** Which “Inhibition of Calcium Flux in IMR-32 Cells % Inhibition at 10 μM” value does the source give for `Cc1onc(-c2ccccc2)c1C(=O)N[C@@H](CC(C)C)C(=O)N[C@@H](Cc1ccc(OCc2ccccc2)cc1)C(=O)OC(C)(C)C` (relative stereo) [Example 131, [(S-(R*,R*)]-3-(4-Benzyloxy-phenyl)-2-{4-methyl-2-[(5-methyl-3-phenyl-isoxazole-4-carbonyl)amino]-pentanoylamino}-propionic acid tert-butyl ester] here?
**A.** 44%

**Q.** Which “Inhibition of Calcium Flux in IMR-32 Cells % Inhibition at 10 μM” value does the source give for `Cc1nn(-c2ccccc2)nc1C(=O)N[C@@H](CC(C)C)C(=O)N[C@@H](Cc1ccc(OCc2ccccc2)cc1)C(=O)OC(C)(C)C` (relative stereo) [Example 121, [S-(R*,R*)]-3-(4-Benzyloxy-phenyl)-2-{4-methyl-2-[(5-methyl-2-phenyl-2H-[1,2,3]triazole-4-carbonyl)-amino]-pentanoylamino}-propionic acid tert-butyl ester] here?
**A.** 25%

**Q.** With `CC(C)C[C@H](NC(=O)N1CCCCCC1)C(=O)N[C@@H](Cc1ccc(OCc2ccccc2)cc1)C(=O)NCCNCc1ccccc1` [Example 252, [S-(R*,R*)]-Azepane-1-carboxylic acid {1-[1-(2-benzylamino-ethylcarbamoyl)-2-(4-benzyloxy-phenyl)-ethylcarbamoyl]-3-methyl-butyl}-amide] as the molecule, how does the IC50 read?
**A.** 0.28 µM

**Q.** How did the “Inhibition of Calcium Flux in IMR-32 Cells % Inhibition at 10 μM” value turn out when `CC(C)C[C@H](NC(=O)Cc1cccnc1)C(=O)N[C@@H](Cc1ccc(OCc2ccccc2)cc1)C(=O)OC(C)(C)C` (relative stereo) [Example 119, [S-(R*,R*)]-3-(4-Benzyloxy-phenyl)-2-[4-methyl-2-(2-pyridin-3-yl-acetylamino)pentanoylamino]-propionic acid tert-butyl ester] was run?
**A.** 65%

**Q.** Which “Inhibition of Calcium Flux in IMR-32 Cells % Inhibition at 1 μM” value does the source give for `CC(C)C[C@H](NC(=O)N1CCCCCC1)C(=O)N[C@@H](Cc1ccc(OCc2ccccc2)cc1)C(=O)NCCc1ccc(O)cc1` (relative stereo) [Example 225, [S-(R*,R*)]-Azepane-1-carboxylic acid (1-{2-(4-benzyloxy-phenyl)-1-[2-(4-hydroxy-phenyl)-ethylcarbamoyl]-ethylcarbamoyl}-3-methyl-butyl)-amide] here?
**A.** 55%

**Q.** What about the “Inhibition of Calcium Flux in IMR-32 Cells % Inhibition at 10 μM” value of the same molecule?
**A.** 94%
